Tests used:
[1] = Ratio of drug level in thymus to plasma in female Beagle dog at 200 mg/kg, sc after 3 months; format: ADME, organism-based, Canis lupus familiaris; set-up: dose 200 mg/kg, route subcutaneous
[2] = Ratio of drug level in thymus to plasma in male Beagle dog at 200 mg/kg administered intramuscularly after 1 month; format: ADME, organism-based, Canis lupus familiaris; set-up: dose 200 mg/kg, route intramuscular; conditions: im
[3] = Drug level in female Beagle dog thymus at 200 mg/kg administered intramuscularly after 3 months; format: ADME, organism-based, Canis lupus familiaris; set-up: dose 200 mg/kg, route intramuscular; conditions: im, read-out: Drug uptake
[4] = Drug level in Beagle dog skin at non-injected site at 5 mg/kg administered intramuscularly after 6 months; format: ADME, organism-based, Canis lupus familiaris, Zone of skin; set-up: dose 5 mg/kg, route intramuscular; conditions: im, read-out: Drug uptake
[5] = Drug level in Beagle dog skin at non-injected site at 5 mg/kg, sc after 3 months; format: ADME, organism-based, Canis lupus familiaris, Zone of skin; set-up: dose 5 mg/kg, route subcutaneous; conditions: read-out: Drug uptake
[6] = Drug level in male Beagle dog spleen at 200 mg/kg administered intramuscularly after 1 month; format: ADME, organism-based, Canis lupus familiaris; set-up: dose 200 mg/kg, route intramuscular; conditions: im, read-out: Drug uptake
[7] = Drug level in Beagle dog muscle at non-injected site at 5 mg/kg, sc after 6 months; format: ADME, organism-based, Canis lupus familiaris, Muscle tissue; set-up: dose 5 mg/kg, route subcutaneous; conditions: read-out: Drug uptake
[8] = Cmax in male dog at 200 mg, sc after 85 days; conditions: in vivo
[9] = Ratio of drug level in thymus to plasma in female Beagle dog at 200 mg/kg, sc after 1 month; format: ADME, organism-based, Canis lupus familiaris; set-up: dose 200 mg/kg, route subcutaneous
[10] = Absolute bioavailability in Beagle dog at 5 mg/kg, sc after 176 days; format: ADME, organism-based, Canis lupus familiaris; conditions: in vivo
[11] = Cmax in Beagle dog at 5 mg/kg, sc after 184 days; format: ADME, organism-based, Canis lupus familiaris; set-up: dose 5 mg/kg, route subcutaneous; conditions: in vivo
[12] = Ratio of drug level in spleen to plasma in male Beagle dog at 200 mg/kg, sc after 3 months; format: ADME, organism-based, Canis lupus familiaris; set-up: dose 200 mg/kg, route subcutaneous
[13] = Ratio of drug level in thymus to plasma in Beagle dog at 5 mg/kg, sc after 3 months; format: ADME, organism-based, Canis lupus familiaris; set-up: dose 5 mg/kg, route subcutaneous
[14] = Drug level in Beagle dog muscle at non-injected site at 5 mg/kg administered intramuscularly after 6 months; format: ADME, organism-based, Canis lupus familiaris, Muscle tissue; set-up: dose 5 mg/kg, route intramuscular; conditions: im, read-out: Drug uptake
[15] = Drug level in Beagle dog lymph node iliac at 5 mg/kg, sc after 1 month; format: ADME, organism-based, Canis lupus familiaris; set-up: dose 5 mg/kg, route subcutaneous; conditions: read-out: Drug uptake
[16] = Drug level in male Beagle dog spleen at 200 mg/kg, sc after 1 month; format: ADME, organism-based, Canis lupus familiaris; set-up: dose 200 mg/kg, route subcutaneous; conditions: read-out: Drug uptake
[17] = Ratio of drug level in spleen to plasma in female Beagle dog at 400 mg/kg administered intramuscularly after 3 months; format: ADME, organism-based, Canis lupus familiaris; set-up: dose 400 mg/kg, route intramuscular; conditions: im
[18] = Drug level in Beagle dog muscle at injected site at 5 mg/kg administered intramuscularly after 6 months; format: ADME, organism-based, Canis lupus familiaris, Muscle tissue; set-up: dose 5 mg/kg, route intramuscular; conditions: im, read-out: Drug uptake
[19] = Tmax in Beagle dog at 5 mg/kg administered intramuscularly after 176 days; format: ADME, organism-based, Canis lupus familiaris; set-up: dose 5 mg/kg, route intramuscular; conditions: in vivo, im
[20] = Tmax in male dog at 400 mg administered intramuscularly after 85 days; conditions: in vivo, im
[21] = AUC (0 to last) in Beagle dog at 5 mg/kg, sc after 176 days; format: ADME, organism-based, Canis lupus familiaris; set-up: time 0 - last, dose 5 mg/kg, route subcutaneous; conditions: plasma
[22] = Ratio of drug level in spleen to plasma in Beagle dog at 5 mg/kg, sc after 3 months; format: ADME, organism-based, Canis lupus familiaris; set-up: dose 5 mg/kg, route subcutaneous
[23] = (§1) Plasma concentration in Beagle dog at 5 mg/kg administered intramuscularly after 3 months; format: ADME, organism-based, Canis lupus familiaris; set-up: dose 5 mg/kg, route intramuscular; conditions: im
[24] = test system: Plasma; test: as §1; format: ADME, organism-based, Canis lupus familiaris; set-up: dose 5 mg/kg, route intramuscular; conditions: in vivo, im, 2191.5 h, BLD = below limit of detection
[25] = Drug level in Beagle dog lymph node iliac at 5 mg/kg administered intramuscularly after 3 months; format: ADME, organism-based, Canis lupus familiaris; set-up: dose 5 mg/kg, route intramuscular; conditions: im, read-out: Drug uptake
[26] = Ratio of drug level in thymus to plasma in female Beagle dog at 200 mg/kg administered intramuscularly after 3 months; format: ADME, organism-based, Canis lupus familiaris; set-up: dose 200 mg/kg, route intramuscular; conditions: im
[27] = Drug level in female Beagle dog thymus at 200 mg/kg administered intramuscularly after 1 month; format: ADME, organism-based, Canis lupus familiaris; set-up: dose 200 mg/kg, route intramuscular; conditions: im, read-out: Drug uptake
[28] = Drug level in Beagle dog lymph node iliac at 5 mg/kg administered intramuscularly after 1 month; format: ADME, organism-based, Canis lupus familiaris; set-up: dose 5 mg/kg, route intramuscular; conditions: im, read-out: Drug uptake
[29] = Plasma concentration in male Beagle dog at 400 mg/kg, sc after 1 month; format: ADME, organism-based, Canis lupus familiaris; set-up: dose 400 mg/kg, route subcutaneous

Kp at 2191.5 h [1]: 4 | Kp at 730.5 h [2]: 3.2 | concentration at 2191.5 h [3]: 27.4 ng/g | concentration at 4383 h [4]: 6.7 ng/g | concentration at 2191.5 h [5]: 24.2 ng/g | concentration at 730.5 h [6]: 133 ng/g | concentration at 4383 h [7]: < 5 ng/g | Cmax [8]: 107 ng/mL | Kp at 730.5 h [9]: 3.9 | bioavailability [10]: 80% | Cmax [11]: 38 ng/mL | Kp at 2191.5 h [12]: 2.5 | Kp at 2191.5 h [13]: 13 | concentration at 4383 h [14]: < 5 ng/g | concentration at 730.5 h [15]: 64.9 ng/g | concentration at 730.5 h [16]: 189 ng/g | Kp at 2191.5 h [17]: 2.3 | concentration at 4383 h [18]: 11500 ng/g | Tmax [19]: 0.5 h | Tmax [20]: 17 h | AUC(0-t) at 4224 h [21]: 19700 ng·h/mL | Kp at 2191.5 h [22]: 3 | concentration at 2191.5 h [23]: < 1 ng/mL | Cp [24]: BLD | concentration at 2191.5 h [25]: 15.3 ng/g | Kp at 2191.5 h [26]: 2.8 | concentration at 730.5 h [27]: 353 ng/g | concentration at 730.5 h [28]: 19000 ng/g | concentration at 730.5 h [29]: 209 ng/mL
Compound: Cc1cc(/C=C/C#N)cc(C)c1Nc1ccnc(Nc2ccc(C#N)cc2)n1 [RILPIVIRINE]
